{"source": "ChEMBL document CHEMBL5550205", "about": "“Discovery of a NCOA4 Degrader for Labile Iron-Dependent Ferroptosis Inhibition” (J Med Chem, 2024)", "test_system": "AML12", "assay": "Protection against CCl4-induced ferroptosis in mouse AML12 cells assessed as cell viability", "format": "functional, cell-based", "data": [{"compound": "CCOC(=O)c1ccc(NC2CCCCC2)c(N)c1", "values": [{"measurement": "EC50", "value": 104, "unit": "nM"}]}]}
